In ChEMBL document CHEMBL4382200, “Discovery of Novel 7-Aryl 7-Deazapurine 3'-Deoxy-ribofuranosyl Nucleosides with Potent Activity against Trypanosoma cruzi” (J Med Chem, 2018):
Activity calls are given as the source filed them. No cut-off for these calls is given here.

Assays:
[1] = test system: Trypanosoma cruzi; assay: Trypanocidal activity against Trypanosoma cruzi Y strain intracellular amastigotes infected in mouse cardiac cells assessed as parasite death after 168 hrs by Giemsa-staining based assay; format: functional, organism-based
[2] = test system: CYP450; assay: Drug metabolism in dog liver microsome S9 fraction assessed as CYP450-mediated metabolism by measuring compound remaining at 5 uM pretreated with NADPH and measured after 30 mins by UPLC-MS/MS analysis; format: ADME, microsomes, Canis lupus familiaris; settings: liver microsome S9 fraction, read-out: Stability
[3] = Therapeutic index, ratio EC50 for human MRC5 SV2 cells to EC50 for Trypanosoma cruzi Tulahuen CL2 intracellular amastigotes; format: toxicity, cell-based; settings: read-out: Ratio EC50
[4] = biological target: T1, Cytochrome P450 (family) (Homo sapiens, UniProt P04798+P05177+P05181+P08684+P10632+P10635+P11509+P11712+P13584+P20813+P20815+P20853+P24462+P24903+P33260+P33261+P51589+P78329+P98187+Q02928+Q08477+Q16678+Q16696+Q5TCH4+Q6VVX0+Q7Z449+Q8TAV3+Q96SQ9+Q9HB55); assay: Drug metabolism in human liver microsome S9 fraction assessed as CYP450-mediated metabolism by measuring compound remaining at 5 uM pretreated with NADPH and measured after 15 mins by UPLC-MS/MS analysis; format: ADME, microsomes; settings: liver microsome S9 fraction, read-out: Stability
[5] = test system: Trypanosoma cruzi; assay: Antiparasitic activity against Trypanosoma cruzi Tulahuen CL2 intracellular amastigotes expressing beta-galactosidase infected in human MRC5 SV2 cells after 7 days by chlorophenol red beta-D-galactopyranoside-based spectrophotometric analysis; format: functional, organism-based; settings: Tulahuen CL2, MRC-5 SV2, 168 h, read-out: EC50
[6] = test system: UGT; assay: Drug metabolism in mouse liver microsome S9 fraction assessed as UGT-mediated metabolism by measuring compound remaining at 5 uM pretreated with UDPGA and measured after 60 mins by UPLC-MS/MS analysis; format: ADME, microsomes; settings: liver microsome S9 fraction, read-out: Stability
[7] = Cytotoxicity against human MRC5 SV2 cells assessed as reduction in cell viability after 3 days resazurin-based fluorimetric assay; settings: MRC-5 SV2, 72 h
[8] = biological target: T1, Cytochrome P450 (family); assay: Drug metabolism in human liver microsome S9 fraction assessed as CYP450-mediated metabolism by measuring compound remaining at 5 uM pretreated with NADPH and measured after 60 mins by UPLC-MS/MS analysis; format: ADME, microsomes; settings: liver microsome S9 fraction, read-out: Stability
[9] = test system: Trypanosoma cruzi; assay: (§1) Antiparasitic activity against Trypanosoma cruzi Y strain bloodstream trypomastigotes infected in Swiss Webster mouse assessed as protection against parasite-induced mortality by measuring survivial at 25 mg/kg, po bid via gavage administered for 5 consecutive days starting from day 5 post infection measured at day 40 post infection relative to control; format: functional
[10] = test system: UGT; assay: Drug metabolism in mouse liver microsome S9 fraction assessed as UGT-mediated metabolism by measuring compound remaining at 5 uM pretreated with UDPGA and measured after 15 mins by UPLC-MS/MS analysis; format: ADME, microsomes; settings: liver microsome S9 fraction, read-out: Stability
[11] = test system: CYP450; assay: Drug metabolism in dog liver microsome S9 fraction assessed as CYP450-mediated metabolism by measuring compound remaining at 5 uM pretreated with NADPH and measured after 15 mins by UPLC-MS/MS analysis; format: ADME, microsomes, Canis lupus familiaris; settings: liver microsome S9 fraction, read-out: Stability
[12] = test system: UGT; assay: Drug metabolism in dog liver microsome S9 fraction assessed as UGT-mediated metabolism by measuring compound remaining at 5 uM pretreated with UDPGA and measured after 15 mins by UPLC-MS/MS analysis; format: ADME, microsomes, Canis lupus familiaris; settings: liver microsome S9 fraction, read-out: Stability
[13] = test system: CYP450; assay: Drug metabolism in mouse liver microsome S9 fraction assessed as CYP450-mediated metabolism by measuring compound remaining at 5 uM pretreated with NADPH and measured after 15 mins by UPLC-MS/MS analysis; format: ADME, microsomes; settings: liver microsome S9 fraction, read-out: Stability
[14] = test system: Trypanosoma cruzi; assay: Antiparasitic activity against Trypanosoma cruzi Y strain bloodstream trypomastigotes infected in Swiss Webster mouse assessed as decrease in parasitemia at 25 mg/kg, po bid via gavage administered for 5 consecutive days measured at day 8 post infection by direct microscopic counting relative to control; format: functional; set-up: scale not given: the % may be the effect or the level left
[15] = test system: UGT; assay: Drug metabolism in rat liver microsome S9 fraction assessed as UGT-mediated metabolism by measuring compound remaining at 5 uM pretreated with UDPGA and measured after 60 mins by UPLC-MS/MS analysis; format: ADME, microsomes; settings: liver microsome S9 fraction, read-out: Stability
[16] = test system: Trypanosoma cruzi; assay: as §1, with “mortality” for “mortality by measuring survivial”, “15 to day 22” for “40”, “infection” for “infection relative to control”; format: functional, organism-based
[17] = Toxicity in Swiss Webster mouse infected with Trypanosoma cruzi Y strain bloodstream trypomastigotes assessed as weight loss at 25 mg/kg, po bid via gavage administered for 5 consecutive days measured at day 40 post infection; format: organism-based; settings: in vivo
[18] = test system: Trypanosoma cruzi; assay: as §1, with “mortality” for “mortality by measuring survivial”, “15” for “40”, “infection” for “infection relative to control”; format: functional, organism-based
[19] = biological target: T2, UDP-glucuronosyltransferases (UGTs) (family) (Homo sapiens, UniProt O60656+O75310+O75795+P06133+P0DTE4+P0DTE5+P16662+P19224+P22309+P22310+P35503+P35504+P36537+P54855+Q6UWM9+Q9BY64+Q9HAW7+Q9HAW8+Q9HAW9); assay: Drug metabolism in human liver microsome S9 fraction assessed as UGT-mediated metabolism by measuring compound remaining at 5 uM pretreated with UDPGA and measured after 30 mins by UPLC-MS/MS analysis; format: ADME, microsomes; settings: liver microsome S9 fraction, read-out: Stability
[20] = test system: UGT; assay: Drug metabolism in dog liver microsome S9 fraction assessed as UGT-mediated metabolism by measuring compound remaining at 5 uM pretreated with UDPGA and measured after 30 mins by UPLC-MS/MS analysis; format: ADME, microsomes, Canis lupus familiaris; settings: liver microsome S9 fraction, read-out: Stability
[21] = test system: UGT; assay: Drug metabolism in mouse liver microsome S9 fraction assessed as UGT-mediated metabolism by measuring compound remaining at 5 uM pretreated with UDPGA and measured after 30 mins by UPLC-MS/MS analysis; format: ADME, microsomes; settings: liver microsome S9 fraction, read-out: Stability
[22] = test system: CYP450; assay: Drug metabolism in rat liver microsome S9 fraction assessed as CYP450-mediated metabolism by measuring compound remaining at 5 uM pretreated with NADPH and measured after 60 mins by UPLC-MS/MS analysis; format: ADME, microsomes; settings: liver microsome S9 fraction, read-out: Stability
[23] = biological target: T2, UDP-glucuronosyltransferases (UGTs) (family); assay: Drug metabolism in human liver microsome S9 fraction assessed as UGT-mediated metabolism by measuring compound remaining at 5 uM pretreated with UDPGA and measured after 60 mins by UPLC-MS/MS analysis; format: ADME, microsomes; settings: liver microsome S9 fraction, read-out: Stability
[24] = test system: CYP450; assay: Drug metabolism in mouse liver microsome S9 fraction assessed as CYP450-mediated metabolism by measuring compound remaining at 5 uM pretreated with NADPH and measured after 60 mins by UPLC-MS/MS analysis; format: ADME, microsomes; settings: liver microsome S9 fraction, read-out: Stability
[25] = biological target: T2, UDP-glucuronosyltransferases (UGTs) (family); assay: Drug metabolism in human liver microsome S9 fraction assessed as UGT-mediated metabolism by measuring compound remaining at 5 uM pretreated with UDPGA and measured after 15 mins by UPLC-MS/MS analysis; format: ADME, microsomes; settings: liver microsome S9 fraction, read-out: Stability
[26] = test system: CYP450; assay: Drug metabolism in rat liver microsome S9 fraction assessed as CYP450-mediated metabolism by measuring compound remaining at 5 uM pretreated with NADPH and measured after 30 mins by UPLC-MS/MS analysis; format: ADME, microsomes; settings: liver microsome S9 fraction, read-out: Stability
[27] = test system: UGT; assay: Drug metabolism in rat liver microsome S9 fraction assessed as UGT-mediated metabolism by measuring compound remaining at 5 uM pretreated with UDPGA and measured after 30 mins by UPLC-MS/MS analysis; format: ADME, microsomes; settings: liver microsome S9 fraction, read-out: Stability
[28] = test system: Trypanosoma cruzi; assay: Trypanocidal activity against Trypanosoma cruzi Y strain bloodstream trypomastigotes isolated from infected Swiss mouse […] assessed as parasite death after 24 hrs by neubauer chamber based light microscopy; format: functional, organism-based
[29] = test system: CYP450; assay: Drug metabolism in dog liver microsome S9 fraction assessed as CYP450-mediated metabolism by measuring compound remaining at 5 uM pretreated with NADPH and measured after 60 mins by UPLC-MS/MS analysis; format: ADME, microsomes, Canis lupus familiaris; settings: liver microsome S9 fraction, read-out: Stability
[30] = Cytotoxicity against Swiss mouse embryonic cardiomyocytes assessed as reduction in cell viability after 24 hrs by prestoblue-staining based colorimetry; settings: Cardiac muscle cell
[31] = test system: UGT; assay: Drug metabolism in dog liver microsome S9 fraction assessed as UGT-mediated metabolism by measuring compound remaining at 5 uM pretreated with UDPGA and measured after 60 mins by UPLC-MS/MS analysis; format: ADME, microsomes, Canis lupus familiaris; settings: liver microsome S9 fraction, read-out: Stability
[32] = test system: UGT; assay: Drug metabolism in rat liver microsome S9 fraction assessed as UGT-mediated metabolism by measuring compound remaining at 5 uM pretreated with UDPGA and measured after 15 mins by UPLC-MS/MS analysis; format: ADME, microsomes; settings: liver microsome S9 fraction, read-out: Stability
[33] = test system: Trypanosoma cruzi; assay: Antiparasitic activity against Trypanosoma cruzi Y strain bloodstream trypomastigotes infected in Swiss Webster mouse at 25 mg/kg, po bid via gavage administered for 5 consecutive days starting from day 5 post infection followed by cyclophosphamide-induced immunosuppression on day 40 post infection for 4 consecutive days; format: functional, organism-based
[34] = test system: CYP450; assay: Drug metabolism in mouse liver microsome S9 fraction assessed as CYP450-mediated metabolism by measuring compound remaining at 5 uM pretreated with NADPH and measured after 30 mins by UPLC-MS/MS analysis; format: ADME, microsomes; settings: liver microsome S9 fraction, read-out: Stability
[35] = biological target: T1, Cytochrome P450 (family); assay: Drug metabolism in human liver microsome S9 fraction assessed as CYP450-mediated metabolism by measuring compound remaining at 5 uM pretreated with NADPH and measured after 30 mins by UPLC-MS/MS analysis; format: ADME, microsomes; settings: liver microsome S9 fraction, read-out: Stability
[36] = test system: CYP450; assay: Drug metabolism in rat liver microsome S9 fraction assessed as CYP450-mediated metabolism by measuring compound remaining at 5 uM pretreated with NADPH and measured after 15 mins by UPLC-MS/MS analysis; format: ADME, microsomes; settings: liver microsome S9 fraction, read-out: Stability

Nc1ncnc2c1c(-c1ccc(Cl)cc1)cn2[C@@H]1O[C@H](CO)C[C@H]1O
EC50 [1]: 0.029 µM | remaining at 0.5 h, 5 µM [2]: 96% | selectivity ratio [3]: 410 | remaining at 0.25 h, 5 µM [4]: 102% | EC50 [5]: 0.047 µM | remaining at 1 h, 5 µM [6]: 89% | EC50 [7]: 19.1 µM | remaining at 1 h, 5 µM [8]: 93% | Activity [9]: 100% | remaining at 0.25 h, 5 µM [10]: 101% | remaining at 0.25 h, 5 µM [11]: 98% | remaining at 0.25 h, 5 µM [12]: 96% | remaining at 0.25 h, 5 µM [13]: 86% | Activity [14]: 94.6% | remaining at 1 h, 5 µM [15]: 96% | Activity [16]: Active | Activity [17]: Non-Toxic | Activity [18]: Active | remaining at 0.5 h, 5 µM [19]: 106% | remaining at 0.5 h, 5 µM [20]: 96% | remaining at 0.5 h, 5 µM [21]: 95% | remaining at 1 h, 5 µM [22]: 91% | remaining at 1 h, 5 µM [23]: 100% | remaining at 1 h, 5 µM [24]: 68% | remaining at 0.25 h, 5 µM [25]: 100% | remaining at 0.5 h, 5 µM [26]: 101% | remaining at 0.5 h, 5 µM [27]: 96% | EC50 [28]: > 20 µM | remaining at 1 h, 5 µM [29]: 90% | EC50 [30]: 284 µM | remaining at 1 h, 5 µM [31]: 95% | remaining at 0.25 h, 5 µM [32]: 101% | Activity [33]: inactive | remaining at 0.5 h, 5 µM [34]: 75% | remaining at 0.5 h, 5 µM [35]: 95% | remaining at 0.25 h, 5 µM [36]: 101%
